Several values for one entry are separate records, joined by “and”; a condition that tells them apart may be missing. Identical values can stand only once.
How the values were obtained:
[1] = system: cell line 25H9 (CHO cells that produce IL-1R-II protein); experiment: Example 1: induction of IL-1R-II production (ELISA titer, productivity) at 31° C. or 34° C.; type: cell-based, Chinese hamster
Experimental: The following experiment was designed to test whether decitabine can induce the production of a protein, in this case a recombinant soluble form of the human interleukin 1 receptor type II (IL-1-R-II), at either 31° C. or 34° C. Soluble versions of IL-1R-II and methods for producing it are described in U.S. Pat. No. 5,767,064. DNA encoding a soluble form of the human IL-1R-II was inserted into pG3.6, which is described in Morris et al. ((1998), Cytotechnology 28:9-17). This construct was used to transfect CHO cells to produce cell lines, including 25H9, that produce IL-1R-II protein.
(§1) About 2×10^6 cells of cell line 25H9 were inoculated into 30 milliliters of serum-free medium and incubated at the temperatures indicated in Table 1 in vented shake flasks. At the times indicated in Table 1, samples were taken from each flask to determine IL-1R-II titer, cell number, and cell viability. IL-1R-II protein titer was determined by ELISA assay. Cell number was determined by counting cells in a hemocytometer. Cell viability was determined by trypan blue staining and counting stained cells in a hemocytometer. Cumulative viable cell density (CVCD) is the area under the curve of a plot of the viable cell density versus time (in units of cells/ml/day). Productivity (pg of IL-1R-II/cell/day) was determined by dividing the protein titer on a particular day by the CVCD on the same day. Cells were fed with amino acids on days 2 and 5, and dextrose was added periodically in order to maintain levels above 2.0 g/L. All samples were done in duplicate, and the data shown is an average value.

[2] = system: cell line 25H9 (CHO cells that produce IL-1R-II protein); experiment: Example 2: optimization of temperature and decitabine concentration, IL-1R-II production; type: cell-based, Chinese hamster
Experimental: as §1
To determine an optimum temperature and decitabine concentration, three temperatures (30° C., 31° C., and 32° C.) and three decitabine concentrations (10 μM, 15 μM, and 20 μM) were tested. A 31° C. culture containing 0.5 mM sodium butyrate was grown as a control. […] See e.g. International Application Nos. WO 89/06686 and WO 87/05626. The experiment was performed as in Example 1 except that the inducer concentrations, temperatures, and days at which data was collected are as indicated in Table 2 and FIG. 1.

[3] = 31° C., 1 μM decitabine, day 10
[4] = 31° C., 5 μM decitabine, day 10
[5] = 31° C., 10 μM decitabine, day 0
[6] = 31° C., 10 μM decitabine, day 3
[7] = 31° C., 10 μM decitabine, day 5
[8] = 31° C., 10 μM decitabine, day 7
[9] = 31° C., 10 μM decitabine, day 10
[10] = 34° C., 10 μM decitabine, day 3
[11] = 34° C., 10 μM decitabine, day 5
[12] = 34° C., 10 μM decitabine, day 7
[13] = 30° C., 10 μM decitabine, day 3
[14] = 30° C., 10 μM decitabine, day 6
[15] = 30° C., 10 μM decitabine, day 8
[16] = 30° C., 15 μM decitabine, day 3
[17] = 30° C., 15 μM decitabine, day 6
[18] = 30° C., 20 μM decitabine, day 3
[19] = 30° C., 20 μM decitabine, day 6
[20] = 30° C., 20 μM decitabine, day 8
[21] = 31° C., 10 μM decitabine, day 6
[22] = 31° C., 10 μM decitabine, day 8
[23] = 31° C., 15 μM decitabine, day 3
[24] = 31° C., 15 μM decitabine, day 6
[25] = 31° C., 15 μM decitabine, day 8
[26] = 31° C., 20 μM decitabine, day 3
[27] = 31° C., 20 μM decitabine, day 6
[28] = 31° C., 20 μM decitabine, day 8
[29] = 32° C., 10 μM decitabine, day 3
[30] = 32° C., 10 μM decitabine, day 6
[31] = 32° C., 10 μM decitabine, day 8
[32] = 32° C., 15 μM decitabine, day 3
[33] = 32° C., 15 μM decitabine, day 6
[34] = 32° C., 20 μM decitabine, day 3
[35] = 32° C., 20 μM decitabine, day 6
[36] = 32° C., 20 μM decitabine, day 8

Nc1ncn([C@H]2C[C@H](O)[C@@H](CO)O2)c(=O)n1 [decitabine, 5-aza-2′-deoxycytidine]
IL-1R-II Titer ([1]; 31° C., 1 μM decitabine, day 0): 0.0 µg/mL
IL-1R-II Titer ([1]; 31° C., 1 μM decitabine, day 3): 62.6 µg/mL
Productivity ([1]; 31° C., 1 μM decitabine, day 3): 7.5 pg IL-1R-II/cell/day
IL-1R-II Titer ([1]; 31° C., 1 μM decitabine, day 5): 132.0 µg/mL
Productivity ([1]; 31° C., 1 μM decitabine, day 5): 7.8 pg IL-1R-II/cell/day
IL-1R-II Titer ([1]; 31° C., 1 μM decitabine, day 7): 216.5 µg/mL
Productivity ([1]; 31° C., 1 μM decitabine, day 7): 7.8 pg IL-1R-II/cell/day
IL-1R-II Titer [1, 3]: 330.5 µg/mL
Productivity [1, 3]: 7.5 pg IL-1R-II/cell/day
IL-1R-II Titer ([1]; 31° C., 5 μM decitabine, day 0): 0.0 µg/mL
IL-1R-II Titer ([1]; 31° C., 5 μM decitabine, day 3): 77.8 µg/mL
Productivity ([1]; 31° C., 5 μM decitabine, day 3): 9.2 pg IL-1R-II/cell/day
IL-1R-II Titer ([1]; 31° C., 5 μM decitabine, day 5): 123.5 µg/mL
Productivity ([1]; 31° C., 5 μM decitabine, day 5): 7.8 pg IL-1R-II/cell/day
IL-1R-II Titer ([1]; 31° C., 5 μM decitabine, day 7): 210.5 µg/mL
Productivity ([1]; 31° C., 5 μM decitabine, day 7): 9.2 pg IL-1R-II/cell/day
IL-1R-II Titer [1, 4]: 351.0 µg/mL
Productivity [1, 4]: 8.8 pg IL-1R-II/cell/day
IL-1R-II titer relative to the titer observed at 31° C. with no inducer ([1]; 31° C., 10 μM decitabine): 1.7 times
most effective concentration for IL-1R-II titer ([1]; 31° C., 10 μM decitabine among 1, 5, 10 μM): most effective concentration among those tested
IL-1R-II Titer [1, 5]: 0.0 µg/mL
IL-1R-II Titer [1, 6]: 59.1 µg/mL
Productivity [1, 6]: 8.0 pg IL-1R-II/cell/day
IL-1R-II Titer [1, 7]: 149.5 µg/mL
Productivity [1, 7]: 10.4 pg IL-1R-II/cell/day
IL-1R-II Titer [1, 8]: 224.5 µg/mL
Productivity [1, 8]: 10.4 pg IL-1R-II/cell/day
IL-1R-II Titer [1, 9]: 378 µg/mL and 378.0 µg/mL
Productivity [1, 9]: 11.9 pg IL-1R-II/cell/day
IL-1R-II Titer ([1]; 34° C., 1 μM decitabine, day 0): 0.0 µg/mL
IL-1R-II Titer ([1]; 34° C., 1 μM decitabine, day 3): 65.4 µg/mL
Productivity ([1]; 34° C., 1 μM decitabine, day 3): 5.7 pg IL-1R-II/cell/day
IL-1R-II Titer ([1]; 34° C., 1 μM decitabine, day 5): 143.5 µg/mL
Productivity ([1]; 34° C., 1 μM decitabine, day 5): 5.6 pg IL-1R-II/cell/day
IL-1R-II Titer ([1]; 34° C., 1 μM decitabine, day 7): 212.5 µg/mL
Productivity ([1]; 34° C., 1 μM decitabine, day 7): 5.1 pg IL-1R-II/cell/day
IL-1R-II Titer ([1]; 34° C., 1 μM decitabine, day 10): 206.0 µg/mL
IL-1R-II Titer ([1]; 34° C., 5 μM decitabine, day 0): 0.0 µg/mL
IL-1R-II Titer ([1]; 34° C., 5 μM decitabine, day 3): 73.6 µg/mL
Productivity ([1]; 34° C., 5 μM decitabine, day 3): 6.4 pg IL-1R-II/cell/day
IL-1R-II Titer ([1]; 34° C., 5 μM decitabine, day 5): 156.5 µg/mL
Productivity ([1]; 34° C., 5 μM decitabine, day 5): 6.3 pg IL-1R-II/cell/day
IL-1R-II Titer ([1]; 34° C., 5 μM decitabine, day 7): 218.5 µg/mL
Productivity ([1]; 34° C., 5 μM decitabine, day 7): 5.7 pg IL-1R-II/cell/day
IL-1R-II Titer ([1]; 34° C., 5 μM decitabine, day 10): 307 µg/mL and 307.0 µg/mL
IL-1R-II Titer ([1]; 34° C., 10 μM decitabine, day 0): 0.0 µg/mL
IL-1R-II Titer [1, 10]: 80.8 µg/mL
Productivity [1, 10]: 8.3 pg IL-1R-II/cell/day
IL-1R-II Titer [1, 11]: 151.5 µg/mL
Productivity [1, 11]: 7.9 pg IL-1R-II/cell/day
IL-1R-II Titer [1, 12]: 203.5 µg/mL
Productivity [1, 12]: 7.5 pg IL-1R-II/cell/day
IL-1R-II titers at 34° C. compared with 31° C. ([1]; all concentrations of decitabine at 34° C.): Lower IL-1R-II titers
productivity on a per cell basis ([1]; at 7 and 10 days at all concentrations and temperatures tested): increased
IL-1R-II produced at 31° C. versus 30° C. or 32° C. (FIG. 1) ([2]; 10 μM decitabine, 8 days): more IL-1R-II
IL-1R-II titer in 20 μM versus 10 μM or 15 μM decitabine ([2]; 30° C.): higher titer of IL-1R-II
IL1R-II Titer ([2]; 30° C., 10 μM decitabine, day 0): 0.0 µg/mL
IL1R-II Titer [2, 13]: 68.2 µg/mL
Productivity [2, 13]: 9.2 pg IL-1R-II/cell/day
IL1R-II Titer [2, 14]: 156.5 µg/mL
Productivity [2, 14]: 10.9 pg IL-1R-II/cell/day
IL1R-II Titer [2, 15]: 260.5 µg/mL
Productivity [2, 15]: 14.4 pg IL-1R-II/cell/day
IL1R-II Titer ([2]; 30° C., 15 μM decitabine, day 0): 0.0 µg/mL
IL1R-II Titer [2, 16]: 77.2 µg/mL
Productivity [2, 16]: 11.3 pg IL-1R-II/cell/day
IL1R-II Titer [2, 17]: 173.0 µg/mL
Productivity [2, 17]: 12.4 pg IL-1R-II/cell/day
IL1R-II Titer ([2]; 30° C., 15 μM decitabine, day 8): 283.0 µg/mL
IL1R-II Titer ([2]; 30° C., 20 μM decitabine, day 0): 0.0 µg/mL
IL1R-II Titer [2, 18]: 83.6 µg/mL
Productivity [2, 18]: 10.6 pg IL-1R-II/cell/day
IL1R-II Titer [2, 19]: 219.0 µg/mL
Productivity [2, 19]: 13.4 pg IL-1R-II/cell/day
IL1R-II Titer [2, 20]: 346.0 µg/mL
Productivity [2, 20]: 16.9 pg IL-1R-II/cell/day
IL-1R-II titer versus culture containing 0.5 mM sodium butyrate ([2]; 31° C., 10 μM decitabine, 8 days): higher titer
IL1R-II Titer [2, 5]: 0.0 µg/mL
IL1R-II Titer [2, 6]: 164.0 µg/mL
Productivity [2, 6]: 18.8 pg IL-1R-II/cell/day
IL1R-II Titer [2, 21]: 448.5 µg/mL
Productivity [2, 21]: 21.3 pg IL-1R-II/cell/day
IL1R-II Titer [2, 22]: 1087 µg/mL and 1087.0 µg/mL
Productivity [2, 22]: 38.1 pg IL-1R-II/cell/day
IL1R-II Titer ([2]; 31° C., 15 μM decitabine, day 0): 0.0 µg/mL
IL1R-II Titer [2, 23]: 174.0 µg/mL
Productivity [2, 23]: 22.0 pg IL-1R-II/cell/day
IL1R-II Titer [2, 24]: 440.0 µg/mL
Productivity [2, 24]: 22.9 pg IL-1R-II/cell/day
IL1R-II Titer [2, 25]: 718.0 µg/mL
Productivity [2, 25]: 27.8 pg IL-1R-II/cell/day
IL1R-II Titer ([2]; 31° C., 20 μM decitabine, day 0): 0.0 µg/mL
IL1R-II Titer [2, 26]: 162.0 µg/mL
Productivity [2, 26]: 17.6 pg IL-1R-II/cell/day
IL1R-II Titer [2, 27]: 426.0 µg/mL
Productivity [2, 27]: 19.6 pg IL-1R-II/cell/day
IL1R-II Titer [2, 28]: 774.5 µg/mL
Productivity [2, 28]: 27.1 pg IL-1R-II/cell/day
productivity on a per cell basis versus control culture grown in butyrate ([2]; 31° C., all cultures grown in decitabine): comparable to, and in some cases greater than
IL-1R-II produced in 10 μM versus 15 μM or 20 μM decitabine ([2]; 32° C.): produced more IL-1R-II
IL1R-II Titer ([2]; 32° C., 10 μM decitabine, day 0): 0.0 µg/mL
IL1R-II Titer [2, 29]: 186.0 µg/mL
Productivity [2, 29]: 23.1 pg IL-1R-II/cell/day
IL1R-II Titer [2, 30]: 407.0 µg/mL
Productivity [2, 30]: 21.5 pg IL-1R-II/cell/day
IL1R-II Titer [2, 31]: 610.5 µg/mL
Productivity [2, 31]: 24.5 pg IL-1R-II/cell/day
IL1R-II Titer ([2]; 32° C., 15 μM decitabine, day 0): 0.0 µg/mL
IL1R-II Titer [2, 32]: 189.0 µg/mL
Productivity [2, 32]: 23.5 pg IL-1R-II/cell/day
IL1R-II Titer [2, 33]: 410.0 µg/mL
Productivity [2, 33]: 22.5 pg IL-1R-II/cell/day
IL1R-II Titer ([2]; 32° C., 15 μM decitabine, day 8): 478.0 µg/mL
IL1R-II Titer ([2]; 32° C., 20 μM decitabine, day 0): 0.0 µg/mL
IL1R-II Titer [2, 34]: 184.5 µg/mL
Productivity [2, 34]: 22.2 pg IL-1R-II/cell/day
IL1R-II Titer [2, 35]: 492.0 µg/mL
Productivity [2, 35]: 26.3 pg IL-1R-II/cell/day
IL1R-II Titer [2, 36]: 488.5 µg/mL
Productivity [2, 36]: 20.7 pg IL-1R-II/cell/day

Reference: patent publication US6890736B1, “Methods for producing proteins in cultured cells” (Immunex Corporation, priority 2002, dated 2005)
